This is an account of results in patent US20240101510A1, “APYRASE INHIBITORS” (Texas Crop Science, priority 2022, published 2024).

The experiment concerns apyrase. Put plainly: In vitro apyrase assay (screen for apyrase inhibitors, phosphate release read at 630 nm). Conditions: inhibitor conc at 1 mM; 1 hr at room temperature; rounded average of two assay results. The format is biochemical. Here is the method:
Method 1: In Vitro Apyrase Assay: Apyrase inhibitors useful as enhancers of pesticidal activity are assessed using an in vitro assay. The method of Windsor, Bio Techniques 33:1024-1030 (November 2002) was used as follows: Screen for Apyrase Inhibitors - 96 well plates were used for the assay: (Greiner bio-one: REF-655901-96 well, PS, F-bottom, Clear, Non-binding) Buffers: • Reaction Buffer: 60 mM Hepes; 3 mM MgCl2, 3 mM CaCl2 and 3 mM ATP (pH 6.5) • Development Buffer A: 2% aqueous ammonium molybdate • Development Buffer B: 11% ascorbic acid in 37.5% TCA in water • Stop buffer C: 2% trisodium citrate in 2% acetic acid solution in water • Add 100 μl of reaction buffer to each well. • Add […] (control) or inhibitor/compound or compounds such as […] or orthovanadate to each well. […] A blank cell indicates either <10% observed inhibition or a large difference between repetitions. In certain examples, the lack of observed inhibition is due to a lack of solubility of the compound under assay conditions, rather than a lack of apyrase inhibitory activity. Roux compound 15 inhibited apyrase in this assay at about 60%.
In the case of `C/C(=N\NC(=O)c1cccc(S(=O)(=O)Nc2ccccc2Cl)c1)c1ccc2ccccc2c1` [I-1, (E)-N-(2-chlorophenyl)-3-(2-(1-(naphthalen-2-yl)ethylidene)hydrazine-1-carbonyl)benzenesulfonamide], the “% Inhibition of Apyrase” value is 74%. Consider `C/C(=N\NC(=O)c1ccc(NS(=O)(=O)c2cccs2)cc1)c1ccc2ccccc2c1` [I-2, (E)-N-(4-(2-(1-(naphthalen-2-yl)ethylidene)hydrazine-1-carbonyl)phenyl)thiophene-2-sulfonamide], for which the “% Inhibition of Apyrase” value turned out to be 60%. In the case of `C/C(=N\NC(=O)c1cccc(S(=O)(=O)N2CCOCC2)c1)c1ccc2ccccc2c1` [I-3, (E)-3-(morpholinosulfonyl)-N′-(1-(naphthalen-2-yl)ethylidene)benzohydrazide], the “% Inhibition of Apyrase” value was 46%.

Turning to `CCCCCCCCC/C(C)=N\NC(=O)c1ccccc1` [I-5, (Z)-N′-(undecan-2-ylidene)benzohydrazide], the “% Inhibition of Apyrase” value worked out at 22%. Regarding `C/C(=N\NC(=O)c1cncc(Br)c1)c1ccc2ccccc2c1` [I-6, (E)-5-bromo-N′-(1-(naphthalen-2-yl)ethylidene)nicotinohydrazide], the “% Inhibition of Apyrase” value worked out at 22%. Regarding `C/C(=N/NC(=O)c1cccc(C)c1)c1ccc2ccccc2c1` [I-7, (Z)-3-methyl-N′-(1-(naphthalen-2-yl)ethylidene)benzohydrazide], the “% Inhibition of Apyrase” value is recorded as 20%. For `C/C(=N\NC(=O)c1ccc(-n2cnnn2)cc1)c1ccc2ccccc2c1` [I-8, (E)-N′-(1-(naphthalen-2-yl)ethylidene)-4-(1H-tetrazol-1-yl)benzohydrazide], the “% Inhibition of Apyrase” value was 19%.

Turning to `C/C(=N\NC(=O)c1ccc2c(c1)OCO2)c1cccnc1` [I-10, (E)-N′-(1-(pyridin-3-yl)ethylidene)benzo[d][1,3]dioxole-5-carbohydrazide], the “% Inhibition of Apyrase” value was determined as 17%.

Regarding `C/C(=N\NC(=O)c1cccc2ccccc12)c1ccc(C)c(C)c1` [I-11, (E)-N′-(1-(3,4-dimethylphenyl)ethylidene)-1-naphthohydrazide], the “% Inhibition of Apyrase” value worked out at 17%. With `C/C(=N\NC(=O)c1ccccc1F)c1ccncc1` [I-12, (E)-2-fluoro-N′-(1-(pyridin-4-yl)ethylidene)benzohydrazide], the “% Inhibition of Apyrase” value was found to be 16%. `COc1ccc2cc(/C(C)=N/NC(=O)c3ccc4c(c3)OCO4)ccc2c1` [I-13, (E)-N′-(1-(6-methoxynaphthalen-2-yl)ethylidene)benzo[d][1,3]dioxole-5-carbohydrazide]: the “% Inhibition of Apyrase” value came out at 16%. In the case of `C/C(=N\NC(=O)c1n[nH]c2c1CCCC2)c1ccc2ccccc2c1` [I-14, (E)-N′-(1-(naphthalen-2-yl)ethylidene)-4,5,6,7-tetrahydro-1H-indazole-3-carbohydrazide], the “% Inhibition of Apyrase” value is reported as 16%.

In the case of `C/C(=N\NC(=O)c1cc(C)n[nH]1)c1ccc2ccccc2c1` [I-15, (E)-3-methyl-N′-(1-(naphthalen-2-yl)ethylidene)-1H-pyrazole-5-carbohydrazide], the “% Inhibition of Apyrase” value is reported as 15%. Take `CCCCCC(=O)N/N=C(\C)c1cccc2ccccc12` [I-16, (E)-N′-(1-(naphthalen-1-yl)ethylidene)hexanehydrazide]: the “% Inhibition of Apyrase” value came out at 14%. Take `C/C(=N/NC(=O)c1ccccc1)C(=O)O` [I-17, (Z)-2-(2-benzoylhydrazineylidene)propanoic acid]: the “% Inhibition of Apyrase” value was determined as 14%. For `C/C(=N\NC(=O)c1ccccc1C)c1ccccn1` [I-18, (E)-2-methyl-N′-(1-(pyridin-2-yl)ethylidene)benzohydrazide], the “% Inhibition of Apyrase” value worked out at 13%. With `CCC/C=N/NC(=O)c1ccccc1` [I-19, (E)-N′-butylidenebenzohydrazide] the figure was 13%; with `COc1ccc2cc(/C(C)=N/NC(=O)c3ccc(OC)c(OC)c3)ccc2c1` [I-20, (E)-3,4-dimethoxy-N′-(1-(6-methoxynaphthalen-2-yl)ethylidene)benzohydrazide], 12%. In the case of `C/C(=N/NC(=O)c1ccc2nc[nH]c2c1)c1ccc2ccccc2c1` [I-21, (Z)-N′-(1-(naphthalen-2-yl)ethylidene)-1H-benzo[d]imidazole-6-carbohydrazide], the “% Inhibition of Apyrase” value is on record as 12%. With `C/C(=N\NC(=O)c1ccccc1)c1ccc(-c2ccccc2)cc1` [I-22, (E)-N′-(1-([1,1′-biphenyl]-4-yl)ethylidene)benzohydrazide], the “% Inhibition of Apyrase” value is listed as 12%. For `C/C(=N\NC(N)=O)c1cccc2ccccc12` [I-23, (E)-2-(1-(naphthalen-1-yl)ethylidene)hydrazine-1-carboxamide] the value was 12%; for `CCCCCC(=O)N/N=C(/C)c1ccc2ccccc2c1` [I-24, (Z)-N′-(1-(naphthalen-2-yl)ethylidene)hexanehydrazide], 11%; for `CCc1ccc(/C=N/NC(=O)c2ccccc2)cc1` [I-25, (E)-N′-(4-ethylbenzylidene)benzohydrazide], 11%. On to `CC(C)(C)/C=N/NC(=O)c1ccccc1` [I-26, (E)-N′-(2,2-dimethylpropylidene)benzohydrazide], for which the “% Inhibition of Apyrase” value is listed as 11%. With `C/C(=N\NC(=O)c1ccc(Cl)cc1Cl)c1ccccn1` [I-27, (E)-2,4-dichloro-N′-(1-(pyridin-2-yl)ethylidene)benzohydrazide] the figure was 10%; with `C/C(=N\NC(=O)c1cccc([N+](=O)[O-])c1)c1ccc2ccccc2c1` [I-29, (E)-N′-(1-(naphthalen-2-yl)ethylidene)-3-nitrobenzohydrazide], 10%; with `CCCC(CCC)=NNC(=O)c1ccccc1F` [I-30, 2-fluoro-N′-(heptan-4-ylidene)benzohydrazide], 10%.

`C/C(=N\NC(=O)c1cccc(Cl)c1)c1ccc2ccccc2c1` [I-31, (E)-3-chloro-N′-(1-(naphthalen-2-yl)ethylidene)benzohydrazide]: the “% Inhibition of Apyrase” value was determined as 10%. Consider `C/C(=N/NC(=O)c1cccc(C)c1)C1CC1` [I-32, (Z)-N′-(1-cyclopropylethylidene)-3-methylbenzohydrazide], for which the “% Inhibition of Apyrase” value is on record as 10%. In the case of `Cc1ccc(/C=N/NC(=O)c2ccccc2)cc1` [I-33, (E)-N′-(4-methylbenzylidene)benzohydrazide], the “% Inhibition of Apyrase” value turned out to be 10%.

For the compound `CC(=NNC(=O)c1cccc(C)c1)c1ccc2c(c1)CCCC2` [I-204, (E)-3-methyl-N′-(1-(5,6,7,8-tetrahydronapthalen-2-yl)ethylidene)benzohydrazide], the “% Inhibition of Apyrase” value was 74%. `C/C(=N\NC(=O)c1cnnc(C)c1)c1ccc2ccccc2c1` [I-205, (E)-6-methyl-N′-(1-(naphthalen-2-yl)ethylidene)pyridazine-4-carbohydrazide]: the “% Inhibition of Apyrase” value is 68%.

Turning to `C/C(=N\NC(=O)c1ccc(C)c(C)c1)c1ccc2ccccc2c1` [I-206, (E)-3,4-dimethyl-N′-(1-(naphthalen-2-yl)ethylidene)benzohydrazide], the “% Inhibition of Apyrase” value was found to be 68%. For the compound `C/C(=N\NC(=O)c1cc(C)cs1)c1ccc2ccccc2c1` [I-207, (E)-4-methyl-N′-(1-(naphthalen-2-yl)ethylidene)thiophene-2-carbohydrazide], the “% Inhibition of Apyrase” value amounted to 68%. With `C/C(=N\NC(=O)c1ccc(NS(C)(=O)=O)cc1)c1ccc2ccccc2c1` [I-208, (E)-N-(4-(2-(1-(naphthalen-2-yl)ethylidene)hydrazine-1-carbonyl)phenyl)methanesulfonamide] the figure was 66%.

For `C/C(=N\NC(=O)c1cccc(N(C)C)c1)c1ccc2ccccc2c1` [I-209, (E)-3-(dimethylamino)-N′-(1-(naphthalen-2-yl)ethylidene)benzohydrazide], the “% Inhibition of Apyrase” value came to 65%. As to `C/C(=N\NC(=O)c1cccc(C(F)(F)F)c1)c1ccc2ccccc2c1` [I-210, (E)-N′-(1-(naphthalen-2-yl)ethylidene)-3-(trifluoromethyl)benzohydrazide], the “% Inhibition of Apyrase” value amounted to 63%.

`C/C(=N\NC(=O)c1cccc(C)n1)c1ccc2ccccc2c1` [I-211, (E)-6-methyl-N′-(1-(naphthalen-2-yl)ethylidene)picolinohydrazide]: the “% Inhibition of Apyrase” value was 56%. As to `C/C(=N\NC(=O)c1ccc(C)s1)c1ccc2ccccc2c1` [I-212, (E)-5-methyl-N′-(1-(naphthalen-2-yl)ethylidene)thiophene-2-carbohydrazide], the “% Inhibition of Apyrase” value is 56%. For `C/C(=N\NC(=O)c1ccccc1)c1ccc2ccccc2c1` [I-213, (E)-N′-(1-(naphthalen-2-yl)ethylidene)benzohydrazide] the value was 55%; for `C/C(=N\NC(=O)c1csc(C)c1)c1ccc2ccccc2c1` [I-216, (E)-5-methyl-N′-(1-(naphthalen-2-yl)ethylidene)thiophene-3-carbohydrazidee], 44%; for `C/C(=N\NC(=O)c1cccc(C)c1)c1ccc(C)c(C)c1` [I-217, (E)-N′-(1-(3,4-dimethylphenyl)ethylidene)-3-methylbenzohydrazide], 44%.

Turning to `CCc1cccc(C(=O)N/N=C(\C)c2ccc3ccccc3c2)c1` [I-218, (E)-3-ethyl-N′-(1-(naphthalen-2-yl)ethylidene)benzohydrazide], the “% Inhibition of Apyrase” value is reported as 42%.
